The record followed here is ChEMBL document CHEMBL5365505, “Targeted Degradation of CDK4/6: An Innovative Approach to Overcoming Cancer Drug Resistance” (ACS Med Chem Lett, 2023).

By half-life is commonly meant the time needed for the level to fall by half in the phase considered. The Cmax is the highest concentration seen after dosing. A word on the AUC(0-t): it is the area under the concentration-time curve up to a stated or last time point. In general, AUC(0-inf) refers to total exposure, with the tail of the curve extrapolated. Lower therefore signals low exposure. Broadly, the Tmax is the time at which the peak concentration occurs.

What all share (type): ADME, organism-based
What all share (settings): in vivo

Data set [1] in a line: Half life in C57BL/6 mouse at 10 mg/kg, po measured for 24 hrs by LC/MS/MS analysis.
A short description of data set [2]: Cmax in C57BL/6 mouse at 10 mg/kg, po measured for 24 hrs by LC/MS/MS analysis. Further details: time 24 hrs, dose 10 mg/kg, route po.
A short description of data set [3]: AUClast in C57BL/6 mouse at 10 mg/kg, po measured for 24 hrs by LC/MS/MS analysis. Also noted: dose 10 mg/kg, time 24 hrs, route po.
Data set [4] in a line: AUC (infinity) in C57BL/6 mouse at 10 mg/kg, po measured for 24 hrs by LC/MS/MS analysis. Further details: dose 10 mg/kg, time 24 hrs, route po.
Data set [5] in a line: Tmax in C57BL/6 mouse at 10 mg/kg, po measured for 24 hrs by LC/MS/MS analysis.
Data set [6] is described as follows: Half life in C57BL/6 mouse at 25 mg/kg, ip measured for 24 hrs by LC/MS/MS analysis.
A short description of data set [7]: AUC (infinity) in C57BL/6 mouse at 25 mg/kg, ip measured for 24 hrs by LC/MS/MS analysis. Further details: time 24 hrs, dose 25 mg/kg, route ip.
A short description of data set [8]: Cmax in C57BL/6 mouse at 25 mg/kg, ip measured for 24 hrs by LC/MS/MS analysis. Also noted: dose 25 mg/kg, time 24 hrs, route ip.
Data set [9] in a line: Tmax in C57BL/6 mouse at 25 mg/kg, ip measured for 24 hrs by LC/MS/MS analysis.
Data set [10] can be described thus: AUClast in C57BL/6 mouse at 25 mg/kg, ip measured for 24 hrs by LC/MS/MS analysis. Also noted: dose 25 mg/kg, time 24 hrs, route ip.

Several values for one entry are separate records, joined by “and”; a condition that tells them apart may be missing. Equal entries are not always repeated.

In turn, `CC(=O)c1c(C)c2cnc(Nc3ccc(N4CCN(CC5CCN(c6ccc7c(c6)C(=O)N(C6CCC(=O)NC6=O)C7=O)CC5)CC4)cn3)nc2n(C2CCCC2)c1=O` (stereo not given) gave a half-life in data set [1] of 2.15 h. In addition, in data set [2], the Cmax was found to be 724 ng/mL. Also, the AUC(0-t) at 24 h in data set [3] is 2470 ng·h/mL. The compound also had an AUC(0-inf) in data set [4] of 2730 ng·h/mL. The Tmax in data set [5] stood at 1 h.

The compound `CC(=O)c1c(C)c2cnc(Nc3ccc(N4CCN(CCCCC(=O)N[C@H](C(=O)N5C[C@H](O)C[C@H]5C(=O)N[C@@H](C)c5ccc(-c6scnc6C)cc5)C(C)(C)C)CC4)cn3)nc2n(C2CCCC2)c1=O` showed a half-life in data set [6] of 7 h. The compound also showed an AUC(0-inf) in [7] of 9230 ng·h/mL. Further, the Cmax in data set [8] was 2550 ng/mL and 2.6 µM. The time to peak (Tmax) in data set [9] was 0.58 h. The compound also had an AUC(0-t) at 24 h in [10] of 8210 ng·h/mL.
